Measurements taken from patent US20030144308A1, “Fructose 1,6-bisphosphatase inhibitors” (priority 2001, published 2003).
pIC50: −log10 of the molar value.

Key:
[1] = biological target: recombinant human F16BPase (Homo sapiens, UniProt P09467); settings: read-out: IC50 against the human enzyme; allosteric inhibitor; 40 minutes at room temperature without preincubation of compound with enzyme
Method: Fructose-1,6-bisphosphatase Enzyme Assay: Fructose-1,6-bisphosphatase (F16BP) is assayed by measuring its ability to hydrolyze inorganic phosphate from fructose-1,6-bisphosphate using a modification of a reported method (Biochem. J. 1994, 298, 395). […] The final solution consists of 50 mM HEPES (catalog #H7523, Sigma Chemical Company, PO Box 14508, St. Louis, Mo. 63178) pH=7.2, 100 mM KCl (Sigma catalog #P3911), 2 mM MgCI2 (Sigma catalog #M9272), 2 mM EGTA (Sigma catalog #E0396), 1 mM DTT (Sigma atalog #D5545), and 500 1 μM fructose-1,6-bisphosphate (Sigma catalog #752-1). The solution is incubated for 40 minutes at room temperature without preincubation of compound with enzyme. The phosphate released by the enzyme is measured spectrophotometrically using a Titertek Multiscann MCC 340 (Titertek, 330 Wynn Drive, Huntsville, Ala. 35805) at 620 nm, after allowing the phosphate to form a complex for 10 minutes after the addition of 150 μL of ammonium molybdate/malachite green (AM/MG) solution. To prepare the AM/MG solution, one volume of 4.2% ammonium molybdate (w/v, Sigma catalog #A7302) in 4 molar aqueous hydrochloric acid is added to three volumes of 0.045% malachite green (w/v, Sigma catalog #M9636) and 0.01% Tween®-20 (v/v, Sigma catalog #P1379) in water. […]

[2] = tested on: transplanted human mammary carcinoma which expresses epidermal growth factor receptor tyrosine kinase (EGFR); settings: athymic nude mice; cited from earlier work
[3] = tested on: another carcinoma which does not express the EGF receptor; settings: mouse, in vivo; cited from earlier work

recombinant human F16BPase, sequence (P09467 whole entry): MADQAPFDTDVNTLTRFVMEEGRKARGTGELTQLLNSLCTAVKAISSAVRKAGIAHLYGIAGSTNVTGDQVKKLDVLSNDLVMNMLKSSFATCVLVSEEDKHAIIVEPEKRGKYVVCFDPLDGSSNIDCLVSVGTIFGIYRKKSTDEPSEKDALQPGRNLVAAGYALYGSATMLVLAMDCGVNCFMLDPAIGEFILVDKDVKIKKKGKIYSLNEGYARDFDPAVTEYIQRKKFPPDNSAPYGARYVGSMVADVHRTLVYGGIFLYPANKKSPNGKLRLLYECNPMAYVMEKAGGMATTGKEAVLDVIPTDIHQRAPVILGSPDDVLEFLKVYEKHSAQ

Question: With `Nc1ncnc2c1ncn2[C@@H]1O[C@H](COP(=O)(O)O)[C@@H](O)[C@H]1O` [AMP, adenosine 5′-monophosphate] as the compound, how does the pIC50 [1] read?
Answer: 6.10

Question: With `O=CN/C=C/c1cc(O)ccc1O` [erbstatin] as the compound, how does the “growth of transplanted human mammary carcinoma expressing EGFR” value [2] read?
Answer: selectively attenuates the growth

Question: What about the “growth of carcinoma which does not express the EGF receptor” value [3] of the same compound?
Answer: without effect on the growth

Question: Which melting point does the source give for `CCOc1cc2nc(CCl)nc(Nc3cccc(-c4csc(C)n4)c3)c2cc1OCC.Cl` here?
Answer: 252 to 256 °C
